Measured values reported in patent publication US20240335544A1, “M6PR CELL SURFACE RECEPTOR BINDING COMPOUNDS AND CONJUGATES” (LYCIA THERAPEUTICS, INC., priority 2021, published 2024).
Entries after “also recorded” stand apart in the source; their conditions may differ. Like-named read-outs stand apart in the source and are kept apart here.

How the values were obtained:
Jurkat cells [1] = test: Conjugate-mediated uptake of IgG2a-Alexa488 into Jurkat cells; type: cell-based; conditions: for uptake into Jurkat cells (cell fluorescence vs conjugate concentration): DAR 9-11 per conjugate
Protocol: (§1) The anti-IgG2a conjugates were bound to IgG2a-Alexa488, as follows: equal molar ratios of anti-IgG2a and IgG2a-Alexa488 were added in tissue culture media for 30 minutes at room temperature. The resulting anti-IgG2a:IgG2a antibody-Alexa488 compositions were added to Jurkat cells (100 k cells/50 ul per well, n=2), and Alexa488 fluorescence levels were measured (via Alexa488 measurement) at 1 hour and 24 hours by flow cytometry. As the fluorescently labelled target (IgG2a antibody) accumulates in cells, the fluorescence presents a way to measure total intracellular uptake by cells over time.

CI-M6PR = CI-M6PR (Homo sapiens, UniProt P11717); test: Human CI-M6PR binding assay (ELISA); design: purchased R&D 6418-GR-050
Protocol: Nunc black solid bottom MaxiSorp plates were allowed to incubate overnight at 4° C. coated with 1 μg/mL of recombinant human CI-M6PR protein (R&D, 6418-GR-050) in 50 μL PBS. The next day, coating was decanted and plates were washed 3× with PBS. Wells were blocked with 350 μL of 3% BSA-PBS for 1 hour at room temperature. […] 50 μL of diluted conjugates were added to the plate and allowed to incubate at room temperature for 2 hours. After incubation, solutions in plate were decanted and washed with 350 μL of 0.05% PBS-Tween20 three times, drying the plate each wash on a clean paper towel. 50 μL of peroxidase AffiniPure Mouse Anti-Human IgG (Jackson Immuno, 209-035-088) diluted in 3% BSA-PBS to […] was added to the plate and allowed to incubate for 1 hour at room temperature in the dark. After incubation, solutions in plate were decanted and washed with 350 μL of 0.05% PBS-Tween20 3 times, drying the plate each wash on a clean paper towel. […] 50 μL of QuantaBlu solution was added to wells and allowed to incubate for 5-10 minutes at room temperature. After incubation, plates were read on a Perkin Elmer EnVision using photometric 340 and Umbelliferone 460 filter sets for excitation and emission, respectively. Data analysis and non-linear curve-fitting was performed using GraphPad Prism.

Hep G2 cells = test: Conjugate-mediated uptake of IgG2a into Hep G2 cells; type: cell-based, human; conditions: one hour incubation, FIG. 13; 816 DAR6, 817 DAR4, 520 (I-7) DAR4
Protocol: as §1
The uptake of antibody conjugates of exemplary M6PR or ASGPR binding compounds was assessed in Hep G2 cells, using a method similar to that described in Example above. […] Compounds 816 and 817 were prepared according to methods described in International Application No. PCT/US2021/012846, filed Jan. 8, 2021.

[2] = tested on: wild type (WT) K562 cells; test: CI-M6PR mediated uptake of Alexa488-IgE in wild type K562 cells; type: cell-based; conditions: omalizumab conjugates, average loading DAR9, FIG. 14
Protocol: The uptake of exemplary omalizumab (anti-IgE) antibody conjugates of compound 520 (I-7) (average loading DAR9) versus exemplary compound 537 (I-66) (average loading DAR9) was assessed in wild type (WT) K562 cells and CI-M6PR knockout (KO) cells using a similar method of that described above.

Jurkat cells [3] = test: Uptake of IgE-Alexa488 target by omalizumab conjugates in Jurkat cells; type: cell-based; conditions: 1 hour, FIGS. 15-17
Protocol: The omalizumab conjugates of Example 142 were bound to IgE-Alexa488 (prepared according to Example 144), as follows: equal molar ratios of omalizumab (anti-IgE) conjugate and IgE-Alexa488 were added in tissue culture media for 30 minutes at room temperature. The resulting anti-IgE conjugate:IgE antibody-Alexa488 compositions were added to Jurkat cells (100 k cells/50 ul per well, n=2), and Alexa488 fluorescence levels in the cells were measured at 1 hour by flow cytometry. As the fluorescently labelled target (IgE antibody) accumulates in cells, the fluorescence presents a way to measure total intracellular uptake by cells over time.

[4] = target: T1, M6PR (Domains I-9, R&D Systems) (Homo sapiens, UniProt P11717); test: General M6PR binding assay (fluorescence polarization); conditions: Table 16F, unconjugated compounds, 100 nM M6PR, 1 nM probe, 2 hr incubation
T1 construct: with 100 nM M6PR (Domains I-9, R&D Systems) and 1 nM probe; purchased R&D Systems
Protocol: M6PR binding was measured in black 96-well plates using a fluorescence polarization assay. A fluorescent probe consisting of a reference M6Pn ligand linked to Cy5 was synthesized. Test compounds were resuspended in DMSO and 3-fold serial dilutions were made at 100× final concentrations. Binding reactions were conducted in 100 μl final volume in 20 mM HEPES (pH 7.5) 100 mM NaCl 0.015% Tween-20 1% DMSO with 100 nM M6PR (Domains I-9, R&D Systems) and 1 nM probe. Fluorescence polarization was measured using Xex=620 nm, λem=688 nm on an Envision plate reader (Perkin Elmer) after 2 hr incubation time. Dose responses were conducted in duplicate and normalized to the response with DMSO (high) and 1 μM reference compound (low) on each plate. IC50 values were determined by fitting to 4-parameter curves in GraphPad Prism.

[5] = Serum pharmacokinetic analysis of rIgG1 (anti-IgG2a) antibody conjugates; type: in vivo, mice; conditions: intravenous 10 μg/mouse, serum 0.5-24 h, compared to Compound I-7 conjugate
Protocol: A pharmacokinetic analysis of the rIgG1 (anti-IgG2a) antibody conjugates described in the previous example was performed in mice. In particular, […] mice were intravenously administered each rIgG1 antibody conjugate at 10 μg/mouse (5 mice per group). Blood was collected at 0.5, 1, 2, 6, and 24 hours and serum rIgG1 was analyzed using an ELISA kit (Abcam) according to the manufacturer's instructions. Samples were run across 3 different plates with unconjugated rIgG1 controls (UNLB-anti-IgG2a rIgG1) included on all 3 plates. FIGS. 8A-8C show the serum levels of anti-IgG2a conjugated to Compound I-7 (dar8) and (dar4) (FIG. 8A), anti-IgG2a conjugated to Compound I-10 and anti-IgG2a conjugated to Compound I-11 (FIG. 8B), and anti-IgG2a conjugated to Compound I-9 and anti-IgG2a conjugated to Compound I-12 (FIG. 8C) over time.

[6] = antibody conjugate, average loading DAR 9, read-out: EC50 (nM) in M6PR binding assay
[7] = Table 16E, conjugate, m average DAR 9.5, read-out: EC50 in M6PR binding assay for conjugates of monovalent compounds of varying linker length and loading
[8] = antibody conjugate, average loading DAR 9.5, read-out: EC50 (nM) in M6PR binding assay

Sequence of CI-M6PR (P11717 41-1365 limits assumed): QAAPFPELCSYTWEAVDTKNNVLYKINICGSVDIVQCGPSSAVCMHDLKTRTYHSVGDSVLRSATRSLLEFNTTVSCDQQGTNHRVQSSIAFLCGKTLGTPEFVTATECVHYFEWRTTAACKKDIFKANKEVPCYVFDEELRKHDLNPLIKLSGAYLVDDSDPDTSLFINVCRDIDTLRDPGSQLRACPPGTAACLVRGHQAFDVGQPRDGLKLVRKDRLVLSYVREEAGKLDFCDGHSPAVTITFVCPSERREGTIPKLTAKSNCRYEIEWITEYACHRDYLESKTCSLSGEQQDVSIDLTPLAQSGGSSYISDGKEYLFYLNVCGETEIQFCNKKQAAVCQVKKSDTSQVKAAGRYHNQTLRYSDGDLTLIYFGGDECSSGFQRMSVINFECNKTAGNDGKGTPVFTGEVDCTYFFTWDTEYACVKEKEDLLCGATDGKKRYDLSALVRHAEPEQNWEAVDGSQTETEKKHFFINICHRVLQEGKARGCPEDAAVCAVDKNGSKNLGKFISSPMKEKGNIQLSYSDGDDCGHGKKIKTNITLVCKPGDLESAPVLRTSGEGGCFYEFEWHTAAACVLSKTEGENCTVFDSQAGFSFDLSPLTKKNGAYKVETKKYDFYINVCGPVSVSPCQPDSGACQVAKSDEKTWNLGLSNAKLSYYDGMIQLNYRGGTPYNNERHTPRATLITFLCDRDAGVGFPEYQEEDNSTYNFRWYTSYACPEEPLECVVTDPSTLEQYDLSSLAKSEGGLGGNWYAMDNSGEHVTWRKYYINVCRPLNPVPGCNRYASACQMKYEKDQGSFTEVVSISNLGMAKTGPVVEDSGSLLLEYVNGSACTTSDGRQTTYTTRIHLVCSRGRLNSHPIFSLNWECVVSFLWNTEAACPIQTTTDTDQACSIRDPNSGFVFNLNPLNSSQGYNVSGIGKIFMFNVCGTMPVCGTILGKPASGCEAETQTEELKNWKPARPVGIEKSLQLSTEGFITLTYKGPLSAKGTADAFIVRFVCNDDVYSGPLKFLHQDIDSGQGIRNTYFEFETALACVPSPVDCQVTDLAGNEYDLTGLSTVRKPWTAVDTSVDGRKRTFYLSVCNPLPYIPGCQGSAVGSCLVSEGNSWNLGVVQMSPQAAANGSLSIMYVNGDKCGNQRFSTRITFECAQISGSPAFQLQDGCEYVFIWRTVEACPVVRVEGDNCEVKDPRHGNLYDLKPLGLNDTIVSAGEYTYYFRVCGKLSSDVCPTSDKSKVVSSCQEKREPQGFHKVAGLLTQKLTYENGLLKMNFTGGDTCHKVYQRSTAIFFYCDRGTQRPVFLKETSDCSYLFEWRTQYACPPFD
T1 sequence (P11717 41-1365 limits assumed): as above

O=C(CCCCCc1cn(CCOCCOCCOCCOCCC(=O)Oc2c(F)c(F)c(F)c(F)c2F)nn1)Nc1ccc(O[C@H]2O[C@H](CCP(=O)(O)O)[C@@H](O)[C@H](O)[C@@H]2O)cc1 [513 (I-39)]
uptake into Jurkat cells (cell fluorescence vs conjugate concentration) (Jurkat cells [1]; one hour incubation, FIG. 12): strong cell uptake
EC50 (CI-M6PR; [6]): 0.19 nM

O=C(CCOCCOCCOCCOCCn1cc(CCCCNC(=S)Nc2ccc(O[C@H]3O[C@H](CCP(=O)(O)O)[C@@H](O)[C@H](O)[C@@H]3O)cc2)nn1)Oc1c(F)c(F)c(F)c(F)c1F [520 (I-7)]
uptake into HepG2 cells (Hep G2 cells): comparable HepG2 cellular uptake
cell uptake of Alexa488-IgE target, WT K562 versus CI-M6PR KO cells [2]: CI-M6PR dependent
EC50 (CI-M6PR; Table 16B, antibody conjugate, average loading DAR 4, read-out: EC50 in M6PR binding assay): 0.41 nM
EC50 (CI-M6PR; Table 16C, cetuximab (anti-EGFR) conjugate, average loading DAR 8, read-out: EC50 in M6PR binding assay): 0.41 nM
EC50 (CI-M6PR; Table 16D, conjugate, m average loading DAR 2, read-out: EC50 in M6PR binding assay for conjugates of compounds of varying multivalency): 3.71 nM
EC50 (CI-M6PR; Table 16D, conjugate, m average loading DAR 4, read-out: EC50 in M6PR binding assay for conjugates of compounds of varying multivalency): 0.3 nM
EC50 (CI-M6PR; Table 16D, conjugate, m average loading DAR 9, read-out: EC50 in M6PR binding assay for conjugates of compounds of varying multivalency): 0.23 nM
EC50 (CI-M6PR; Table 16E, conjugate, m average DAR 2, read-out: EC50 in M6PR binding assay for conjugates of monovalent compounds of varying linker length and loading): 3.71 nM
EC50 (CI-M6PR; Table 16E, conjugate, m average DAR 4, read-out: EC50 in M6PR binding assay for conjugates of monovalent compounds of varying linker length and loading): 0.3 nM
EC50 (CI-M6PR; Table 16E, conjugate, m average DAR 9, read-out: EC50 in M6PR binding assay for conjugates of monovalent compounds of varying linker length and loading): 0.23 nM
EC50 (CI-M6PR; antibody conjugate, average loading DAR 2, read-out: EC50 (nM) in M6PR binding assay): 2.6 nM
EC50 (CI-M6PR; antibody conjugate, average loading DAR 4, read-out: EC50 (nM) in M6PR binding assay): 0.22 nM
EC50 (CI-M6PR; [6]): 0.22 nM
binding affinity to M6PR, rank among conjugates tested (FIGS. 7A-7F) (CI-M6PR; matuzumab conjugates, I-7 at d8 (DAR 8), I-11 at d4 (DAR 4)): highest

C[C@H](NC(=O)CCCn1cc(CCCCNC(=S)Nc2ccc(O[C@H]3O[C@H](CCP(=O)(O)O)[C@@H](O)[C@H](O)[C@@H]3O)cc2)nn1)C(=O)N[C@@H](C)C(=O)N[C@@H](C)C(=O)NCCOCCOCCOCCOCCC(=O)Oc1c(F)c(F)c(F)c(F)c1F [528 (I-51)]
uptake into Jurkat cells, average loading DAR9 versus DAR2 (Jurkat cells [1]; one hour incubation, FIG. 12): greater uptake
uptake into Jurkat cells (cell fluorescence vs conjugate concentration) (Jurkat cells [1]; one hour incubation, FIG. 12): strong cell uptake
EC50 (CI-M6PR; EC50 in M6PR binding assay for conjugates of compounds of varying multivalency, Table 16D, conjugate, m average loading DAR 2): 2.23 nM
EC50 (CI-M6PR; EC50 in M6PR binding assay for conjugates of monovalent compounds of varying linker length and loading, Table 16E, conjugate, m average DAR 2): 2.23 nM
EC50 (CI-M6PR; Table 16B, antibody conjugate, average loading DAR 8, read-out: EC50 in M6PR binding assay): 0.3 nM
EC50 (CI-M6PR; Table 16D, conjugate, m average loading DAR 9.5, read-out: EC50 in M6PR binding assay for conjugates of compounds of varying multivalency): 0.2 nM
EC50 (CI-M6PR; [7]): 0.2 nM
EC50 (CI-M6PR; [8]): 0.2 nM

O=C(NCCCCc1cn(CCOCCOCCOCCOCCC(=O)Oc2c(F)c(F)c(F)c(F)c2F)nn1)Nc1ccc(O[C@H]2O[C@H](CCP(=O)(O)O)[C@@H](O)[C@H](O)[C@@H]2O)cc1 [529 (I-38)]
uptake into Jurkat cells (cell fluorescence vs conjugate concentration) (Jurkat cells [1]; one hour incubation, FIG. 12): strong cell uptake
EC50 (CI-M6PR; [7]): 0.19 nM
EC50 (CI-M6PR; [8]): 0.19 nM
relative cellular uptake activity of IgE-Alexa488, omalizumab conjugates of Table 15A (Jurkat cells [3]): comparable activity to a thiourea Z^3 analog (520 (I-7) with m=4)

O=C(O)CCOCCOCCOCCOCCNC(=O)[C@H](CCCCn1cc(CCCCNC(=O)Nc2ccc(O[C@H]3O[C@H](CCP(=O)(O)O)[C@@H](O)[C@H](O)[C@@H]3O)cc2)nn1)NC(=O)[C@H](CCCCn1cc(CCCCNC(=O)Nc2ccc(O[C@H]3O[C@H](CCP(=O)(O)O)[C@@H](O)[C@H](O)[C@@H]3O)cc2)nn1)NC(=O)[C@H](CCCCn1cc(CCCCNC(=O)Nc2ccc(O[C@H]3O[C@H](CCP(=O)(O)O)[C@@H](O)[C@H](O)[C@@H]3O)cc2)nn1)NC(=O)CCCn1cc(CCCCNC(=O)Nc2ccc(O[C@H]3O[C@H](CCP(=O)(O)O)[C@@H](O)[C@H](O)[C@@H]3O)cc2)nn1 [Compound 772]
IC50 [4]: 50 to 100 nM

O=C(CCN1C(=O)C=CC1=O)NCCOCCOCCOCCn1cc(CCO[C@H]2O[C@H](CCP(=O)(O)O)[C@@H](O)[C@H](O)[C@@H]2O)nn1 [Compound I-10]
half-life in mice [5]: longer half-life
intracellular uptake of IgG2a-Alexa488 into Jurkat cells (Jurkat cells [1]; anti-IgG2a conjugates, 1 h and 24 h (FIGS. 9-10)): sufficiently robust uptake
binding affinity to M6PR compared to Compound I-7 (CI-M6PR; conjugates of ligand linkers): weaker binding affinity to M6PR compared to Compound I-7; also recorded: weaker binding affinity to M6PR than Compound I-7

C#CCCCC(=O)Nc1ccc2cc(O[C@H]3O[C@H](CCP(=O)(O)O)[C@@H](O)[C@H](O)[C@@H]3O)ccc2c1 [Compound I-68, (2-((2R,3S,4S,5S,6R)-6-((6-(hex-5-ynamido)naphthalen-2-yl)oxy)-3,4,5-trihydroxytetrahydro-2H-pyran-2-yl)ethyl)phosphonic acid]
IC50 [4]: 100 to 500 nM

C#CCCCCCOC[C@H]1O[C@H](OC)[C@@H](O[C@H]2O[C@H](CCP(=O)(O)O)[C@@H](O)[C@H](O)[C@@H]2O)[C@@H](O)[C@@H]1O [Compound I-108, (2-((2R,3S,4S,5S,6R)-6-(((2S,3S,4S,5S,6R)-6-((hept-6-yn-1-yloxy)methyl)-4,5-dihydroxy-2-methoxytetrahydro-2H-pyran-3-yl)oxy)-3,4,5-trihydroxytetrahydro-2H-pyran-2-yl)ethyl)phosphonic acid]
IC50 [4]: ≥ 500 nM

O=C(NCCCCc1cn(-c2cccnc2)nn1)Nc1ccc(C[C@H]2O[C@H](CCP(=O)(O)O)[C@@H](O)[C@H](O)[C@@H]2O)cc1 [Compound P5]
IC50 [4]: 100 to 500 nM
